Measurements reported in patent US6025365A, “Chelerythrine and radiation combined tumor therapy” (Arch Development Corp., priority 1997, dated 2000).

How the values were obtained:
SQ-20B xenografts = test: Growth of SQ-20B tumor xenografts in nude mice; assay type: in vivo, nude mice (human tumor xenograft)
Description: FIG. 6. The SQ-20B xenograft system was used to assess the therapeutic efficacy of the combined treatment modality over 30 days. Forty animals (n=40) were treated in each group and the % mean tumor growth was determined for all animals. Calipers were used to measure tumor growth.
SQ-20B (1-5×10^6) tumor cells were injected into the right hind limbs of nude mice (Fredrick Cancer Research Institute). Xenografts were grown for 2-3 weeks to a mean tumor volume of […]. At day 0, initial tumor volume was determined by direct measurement with calipers. During treatment tumor volumes were measured with calipers twice weekly and represented as percent of original tumor volume. Tumor volumes were calculated by the formula (a×b×c/2) which was derived from that for an ellipsoid (d3/6). Tumor cure was defined as regression to a volume of <10% of original size since, at this volume, it is impossible to differentiate residual tumor from scar tissue. Xenografts were injected with 2 mg/kg chelerythrine chloride on days 0, 3, 7 and 10. Irradiated mice were immobilized in lucite chambers and the entire body was shielded with lead except for the tumor bearing hind limb 14. Tumors were irradiated (5 Gy/day, 4 days/week) to a total dose of 50 Gy using a Maxitron generator (1.88 Gy/min.). Tumors were treated with radiation alone, chelerythrine alone, and buffer or chelerythrine combined with radiation. Data were calculated as the percent of original (day 0) tumor volume and graphed as fractional tumor volume±SEM.
Radiation was delivered at 5 Gy/day, 4 days per week, for a total of 50 Gy.

WEHI-231 cells = test: Sphingomyelin mass by lipid extraction / TLC; assay type: cell-based, murine; details: 10 μM chelerythrine, 60 minutes
Description: FIG. 7A. Inhibition of PKC causes an increase in ceramide production through the activation of a neutral sphingomyelinase and decreases in sphingomyelin levels. Ceramide production was quantitated using the DAG kinase assay for WEHI-231 JM cells and total lipid extraction was used to assay sphingomyelin mass. Following addition of 10 μM chelerythrine, cells were lysed at the appropriate time points as described herein. Each data point represents the average percentage change in ceramide or sphingomyelin generation from baseline derived from at least 8 independent studies for all time points with the exception of those marked with * (n=4). Standard deviations depicted by error bars.
FIG. 7B. […] Ceramide production and sphingomyelin mass was quantitated identical to that for chelerythrine. Cells were lysed 2 hours following the addition of 250 nM calphostin C. […]
Cells were prelabeled with [^3 H] palmitate (10 μCi/ml) for 24 hours to isotopic equilibrium in 15 ml glass tubes to minimize changes in cellular ceramide and sphingomyelin due to handling and changing of media (Borchardt et al., 1994). […] Autoradiographs were quantitated using an Epson 1200 c 30 bit scanner and NIH Image software (public domain program developed at the NIH and available from the Internet via FTP from zippy.nimh.nih.gov). […]

[1] = Acute lethality / tolerability in mice

Structure (SMILES): COc1ccc2c(c[n+](C)c3c4cc5c(cc4ccc23)OCO5)c1OC [chelerythrine, 1,2-dimethoxy-12-methyl[1,3]benzodioxolo[5,6-c]phenanthridinium]
- animals with regression to less than 10% of original tumor volume, combined treatment (SQ-20B xenografts; 2 mg/kg chelerythrine x4 plus 50 Gy, day 31): 20/41
- animals with regression to less than 10% of initial tumor volume, chelerythrine only (SQ-20B xenografts; 2 mg/kg x4, day 31): 13/43
- tumor regrowth, volume at day 30 (SQ-20B xenografts; chelerythrine alone, 2 mg/kg days 0, 3, 7, 10): 174 % of the original volume
- sphingomyelin mass (WEHI-231 cells): about 55 % of control
- health of animals ([1]; all treatment groups, throughout the xenograft study): appeared healthy throughout the study
- LD50 ([1]; mouse, in vivo, ip): 25 mg/kg
